Test results as given in patent publication US20080090834A1, “SELECTIVE AZOLE PDE10A INHIBITOR COMPOUNDS” (Pfizer Inc, priority 2006, published 2008).
Where a name gives a salt, the structure may show the parent alone.

target: T1, cloned rat PDE10A full-length enzyme (Rattus norvegicus, UniProt Q9QYJ6); assay: PDE10 enzyme inhibition, [3H]cAMP scintillation proximity assay; assay type: biochemical; conditions: rat PDE10A from Sf9 cells, 20 nM [3H]cAMP, SPA beads, 20 minute incubation at room temperature
T1 construct: cloned rat PDE10A full-length enzyme grown in transfected Sf9 insect cells; made in house; host or cells: Sf9 insect cells
T1 sequence (Q9QYJ6 1-794): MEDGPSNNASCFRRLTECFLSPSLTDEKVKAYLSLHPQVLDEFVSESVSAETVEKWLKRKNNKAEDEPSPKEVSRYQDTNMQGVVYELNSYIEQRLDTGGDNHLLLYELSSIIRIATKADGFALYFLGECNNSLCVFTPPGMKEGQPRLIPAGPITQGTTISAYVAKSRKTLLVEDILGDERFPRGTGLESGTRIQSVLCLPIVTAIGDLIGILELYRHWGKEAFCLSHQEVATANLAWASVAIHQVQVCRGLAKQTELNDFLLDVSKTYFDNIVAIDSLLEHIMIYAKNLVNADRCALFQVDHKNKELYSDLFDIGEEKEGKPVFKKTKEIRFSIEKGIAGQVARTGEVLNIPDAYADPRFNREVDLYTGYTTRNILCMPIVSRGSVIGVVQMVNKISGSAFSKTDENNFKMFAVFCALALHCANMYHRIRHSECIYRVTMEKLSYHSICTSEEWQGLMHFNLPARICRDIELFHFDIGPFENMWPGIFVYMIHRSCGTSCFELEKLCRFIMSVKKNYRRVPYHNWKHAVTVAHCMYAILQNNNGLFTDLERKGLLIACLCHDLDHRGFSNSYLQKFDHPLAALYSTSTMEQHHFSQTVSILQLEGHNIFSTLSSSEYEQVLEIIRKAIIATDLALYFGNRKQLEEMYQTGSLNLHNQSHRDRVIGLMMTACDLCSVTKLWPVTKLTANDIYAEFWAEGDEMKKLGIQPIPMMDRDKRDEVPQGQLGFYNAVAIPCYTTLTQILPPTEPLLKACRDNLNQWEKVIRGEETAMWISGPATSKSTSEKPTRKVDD
How it was run: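 Full-length rat PDE10A from Sf9 cells hydrolysed 20 nM [3H]cAMP in 50 mM Tris, 8.3 mM MgCl2, pH 7.5, 2% DMSO, for 20 minutes at room temperature (<10% conversion). Yttrium silicate SPA beads with zinc sulphate stopped the reaction and captured [3H]AMP; 1 uM papaverine defined non-specific binding, vehicle defined total conversion.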

Row | SMILES | IC50 [nM]
1 | c1csc(-c2nc(-c3ccc(-n4ccc5cccnc54)cc3)c(-c3cnccn3)[nH]2)c1 [Example 105] | 9.21
2 | COc1ccc(-c2[nH]c(-c3cccs3)nc2-c2ccc(-n3ccnc3)cc2)cc1 [Example 106, 1-(4-(5-(4-methoxyphenyl)-2-(thiophen-2-yl)-1H-imidazol-4-yl)phenyl)-1H-imidazole] | 11
3 | COc1ccc(-c2[nH]c(-c3cccs3)nc2-c2ccc(-n3cnc(-c4ccccc4)c3)cc2)cc1 [Example 108] | 602
4 | Cc1cc(-c2nc(-c3cccs3)n(O)c2-c2cnccn2)ccc1-n1ccc2cccnc21 [Example 109, 1-(4-(1-hydroxy-5-(pyrazin-2-yl))-2-(thiophen-2-yl)-1H-imidazol-4-yl)-2-methylphenyl-1H-pyrrolo[2,3-b]pyridine] | 18.4
5 | Cc1cc(-c2nc(-c3cccs3)n(O)c2-c2cnccn2)ccc1-n1ccc2cccnc21 [Example 110, 1-(4-(1-hydroxy-5-(pyrazin-2-yl)-2-(thiophen-2-yl)-1H-imidazol-4-yl)-2-methylphenyl)-1H-pyrrolo[2,3-b]pyridine] | 36.6
6 | COc1ccc(-c2[nH]c(-c3cccs3)nc2-c2ccc(-n3cnc4ccccc43)cc2)cc1 [Example 111] | 9.33
7 | Cc1cc(-c2nc(-c3cncs3)[nH]c2-c2cnccn2)ccc1-n1ccc2cccnc21 [Example 112] | 175
8 | Cc1cc(-c2nc(-c3cccs3)[nH]c2-c2cnccn2)ccc1-n1ccc2cccnc21 [Example 113] | 47.4
9 | c1ccc(-c2nc(-c3cccnc3)c(-c3ccc(-n4ccc5cccnc54)cc3)[nH]2)nc1 [Example 114, 1-(4-(2-(pyridin-2-yl)-4-(pyridin-3-yl)-1H-imidazol-5-yl)phenyl)-1H-pyrrolo[2,3-b]pyridine] | 18.6
10 | c1ccc(-c2nc(-c3cccnc3)n(-c3ccc(-n4ccc5cccnc54)cc3)n2)nc1 [Example 115, 1-(4-(3-(pyridin-2-yl)-5-(pyridine-3-yl)-1H-1,2,4-triazol-1-yl)phenyl)-1H-pyrrolo[2,3-b]pyridine] | 17.9
11 | c1ccc(-n2nc(-c3ccc(-n4ccc5cccnc54)cc3)c(-c3cccnc3)n2)nc1 [Example 119, 1-(4-(2-(pyridin-2-yl)-5-(pyridin-3-yl)-2H-1,2,3-triazol-4-yl)phenyl)-1H-pyrrolo[2,3-b]pyridine] | 134
12 | c1ccc(-n2cc(-c3cccnc3)c(-c3ccc(-n4ccc5cccnc54)cc3)n2)nc1 [Example 120, 1-(4-(1-(pyridin-2-yl)-4-(pyridin-3-yl)-1H-pyrazol-3-yl)phenyl)-1H-pyrrolo[2,3-b]pyridine] | 42.9
13 | c1ccc(-c2cc(-c3cccnc3)n(-c3ccc(-n4ccc5cccnc54)cc3)n2)nc1 [Example 121, 1-(4-(3-(pyridin-2-yl)-5-(pyridin-3-yl)-1H-pyrazol-1-yl)phenyl)-1H-pyrrolo)-2,3-b]pyridine bis-TFA salt] | 9.29
14 | c1ccc(-c2cc(-c3cccnc3)nn2-c2ccc(-n3ccc4cccnc43)cc2)nc1 [Example 122, 1-(4-(5-(pyridin-2-yl)-3-(pyridin-3-yl)-1H-pyrazol-1-yl)phenyl)-1H-pyrrolo[2,3-b]pyridine TFA salt] | 21.1
15 | c1ccc(-c2nc(-c3ccc(-n4ccc5cccnc54)cc3)n(-c3cccnc3)n2)nc1 [Preparation 123, 1-(4-(5-(pyridin-2-yl)-2-(pyridin-3-yl)-2H-1,2,4-triazol-3-yl)phenyl)-1H-pyrrolo[2,3-b]pyridine] | 26.2

These reach a lower IC50. Values come first.

Row | IC50 [nM] | SMILES
16 | 6.84 | c1ccc(-c2cn(-c3cccnc3)c(-c3ccc(-n4ccc5cccnc54)cc3)n2)nc1 [Example 7, 1-(4-(4-(pyridin-2-yl)-1-(pyridin-3-yl)-1H-imidazol-2-yl)phenyl)-1H-pyrrolo[2,3-b]pyridine]
17 | 3.32 | c1cncc(-n2cc(-c3nccs3)nc2-c2ccc(-n3ccc4cccnc43)cc2)c1 [Example 23, 1-(4-(1-(pyridin-3-yl)-4-(thiazol-2-yl)-1H-imidazol-2-yl)phenyl)-1H-pyrrolo[2,3-b]pyridine]
18 | 0.33 | COc1nc2cccnc2n1-c1ccc(-c2nc(-c3nccs3)cn2-c2ccc(C)nc2)cc1 [Example 81, 2-methoxy-3-(4-(1-(6-methylpyridin-3-yl)-4-(thiazol-2-yl)-1H-imidazol-2-yl)phenyl)-3H-imidazo[4,5-b]pyridine]
19 | 1.54 | Cc1ccc(-n2cc(-c3cscn3)nc2-c2ccc(-n3c(C(F)(F)F)nc4cccnc43)cc2)cn1 [Example 99, 2-(trifluoromethyl)-3-(4-(1-(6-methylpyridin-3-yl)-4-(thiazol-4-yl)-1H-imidazol-2-yl)phenyl)-3H-imidazo[4,5-b]pyridine]
20 | 2.26 | CN1CCN(c2ccc(-c3[nH]c(-c4cncs4)nc3-c3ccc(-n4ccc5cccnc54)cc3)cn2)CC1 [Example 107]
21 | 0.305 | COc1nc2cccnc2n1-c1ccc(-c2nc(-c3cncs3)cn2-c2ccc(C)nc2)cc1 [Example 116]
22 | 0.614 | Cc1ccc(-n2cc(-c3cncs3)nc2-c2ccc(-n3c(C(F)(F)F)nc4cccnc43)cc2)cn1 [Example 117, 2-(trifluoromethyl)-3-(4-(1-(6-methylpyridin-3-yl)-4-(thiazol-5-yl)-1H-imidazol-2-yl)phenyl)-3H-imidazo[4,5-b]pyridine]
23 | 0.748 | Cc1ccc(-n2cc(-c3nccs3)nc2-c2ccc(-n3c(=O)[nH]c4cccnc43)cc2)cn1 [Example 118, 3-(4-(1-(6-methylpyridin-3-yl)-4-(thiazol-2-yl)-1H-imidazol-2-yl)phenyl)-1H-imidazo[4,5-b]pyridin-2(3H)-one]

system: not given; assay: not given; conditions: not given

Row | melting point [°C] | SMILES
24 | 174 to 176 | c1ccc(-c2cn(-c3cccnc3)c(-c3ccc(-n4ccc5cccnc54)cc3)n2)nc1 [Example 7, 1-(4-(4-(pyridin-2-yl)-1-(pyridin-3-yl)-1H-imidazol-2-yl)phenyl)-1H-pyrrolo[2,3-b]pyridine]
25 | 195 to 197 | c1cncc(-n2cc(-c3nccs3)nc2-c2ccc(-n3ccc4cccnc43)cc2)c1 [Example 23, 1-(4-(1-(pyridin-3-yl)-4-(thiazol-2-yl)-1H-imidazol-2-yl)phenyl)-1H-pyrrolo[2,3-b]pyridine]
26 | 190 to 192 | COc1nc2cccnc2n1-c1ccc(-c2nc(-c3nccs3)cn2-c2ccc(C)nc2)cc1 [Example 81, 2-methoxy-3-(4-(1-(6-methylpyridin-3-yl)-4-(thiazol-2-yl)-1H-imidazol-2-yl)phenyl)-3H-imidazo[4,5-b]pyridine]
27 | 201 to 204 | Cc1ccc(-n2cc(-c3cscn3)nc2-c2ccc(-n3c(C(F)(F)F)nc4cccnc43)cc2)cn1 [Example 99, 2-(trifluoromethyl)-3-(4-(1-(6-methylpyridin-3-yl)-4-(thiazol-4-yl)-1H-imidazol-2-yl)phenyl)-3H-imidazo[4,5-b]pyridine]
